{"source": "patent US20140097078A1", "about": "“DISTILLATION DEVICE AND METHOD” (GE HEALTHCARE LIMITED, priority 2011, published 2014)", "key": {"[1]": {"experiment": "Radiolysis / stability of [18F]FET-βAG-TOCA: percentage of parent compound over time", "assay_type": "physicochemical", "details": "for Percentage of parent compound at time: T = 0 / Percentage of parent compound at time: T = 120 m / Percentage of parent compound at time: T = 240 m: ~10 ml in 3-6% EtOH/PBS", "method": "The use of higher levels of fluorine-18 (0.5-1 Curie) was also investigated. […] Although radiolysis occurred during isolation, once the product had been fully formulated (6% EtOH/PBS (10 mL)) it appeared to be stable up to 6 h. During this experiment, the EOS yield after aseptic filtration was 13%. The starting fluorine-18 was then reduced to see enough material could be isolated for a clinical dose, whilst at the same time reducing radiolysis.\nAdditional experiments attempted to add ascorbic acid to the existing HPLC eluent (0.5% w/v), add a sodium ascorbate solution to the HPLC fraction collection vial (5 mg/mL (5 mL)) and elute the tC18 cartridge with a sodium ascorbate/EtOH solution (5 mg/mL/1% EtOH). Unfortunately, due to addition of ascorbic acid to the HPLC eluent, the purification became inefficient, showing very little elution of the stable reagents. […] The isolated yield was also unaffected and gave EOS of 14%. To avoid this problem, ethanol was investigated as a replacement for the ascorbic acid. After some optimisation, a suitable solvent system was found (25% MeCN (0.1% HCl), 75% H2O (0.1% HCl)+0.8% w/v EtOH) which could be used to purify the material at the same time as reducing radiolysis (97% parent T=0 min (n=1)) (Entry 5, Table 2)."}, "[2]": {"details": "Entry 1, starting activity 1 Curie"}, "[3]": {"details": "Entry 2, starting activity 600 mCi"}, "[4]": {"details": "Entry 3, starting activity 500 mCi"}, "[5]": {"details": "Entry 4, starting activity 500 mCi"}, "[6]": {"details": "Entry 5, starting activity 500 mCi, EtOH-containing HPLC eluent"}}, "note": "Like-named read-outs stand apart in the source and are kept apart here."}
{"substance": "[^18F]FET-βAG-TOCA", "values": [{"measurement": "time for which stable once fully formulated", "setting": "[1]; 1 Curie run, formulated in 6% EtOH/PBS (10 mL)", "result": "≥ 6", "unit": "h"}, {"measurement": "Percentage of parent compound at time: T = 0", "setting": "[1]; [2]", "result": 60, "unit": "%"}, {"measurement": "Percentage of parent compound at time: T = 120 m", "setting": "[1]; [2]", "result": 60, "unit": "%"}, {"measurement": "Percentage of parent compound at time: T = 240 m", "setting": "[1]; [2]", "result": 60, "unit": "%"}, {"measurement": "Percentage of parent compound at time: T = 0", "setting": "[1]; [3]", "result": 91, "unit": "%"}, {"measurement": "Percentage of parent compound at time: T = 120 m", "setting": "[1]; [3]", "result": 91, "unit": "%"}, {"measurement": "Percentage of parent compound at time: T = 240 m", "setting": "[1]; [3]", "result": 91, "unit": "%"}, {"measurement": "Percentage of parent compound at time: T = 0", "setting": "[1]; [4]", "result": 96, "unit": "%"}, {"measurement": "Percentage of parent compound at time: T = 120 m", "setting": "[1]; [4]", "result": 96, "unit": "%"}, {"measurement": "Percentage of parent compound at time: T = 240 m", "setting": "[1]; [4]", "result": 96, "unit": "%"}, {"measurement": "Percentage of parent compound at time: T = 0", "setting": "[1]; [5]", "result": 97, "unit": "%"}, {"measurement": "Percentage of parent compound at time: T = 120 m", "setting": "[1]; [5]", "result": 97, "unit": "%"}, {"measurement": "Percentage of parent compound at time: T = 240 m", "setting": "[1]; [5]", "result": 97, "unit": "%"}, {"measurement": "Percentage of parent compound at time: T = 0", "setting": "[1]; [6]", "result": 97, "unit": "%"}, {"measurement": "Percentage of parent compound at time: T = 240 m", "setting": "[1]; [6]", "result": 97, "unit": "%"}, {"measurement": "parent at T=0 min", "setting": "[1]; HPLC solvent 25% MeCN (0.1% HCl), 75% H2O (0.1% HCl)+0.8% w/v EtOH, n=1, Entry 5, Table 2", "result": 97, "unit": "%"}, {"measurement": "parent at T=0 min", "setting": "[1]; ascorbic acid in HPLC eluent (0.5% w/v), sodium ascorbate in collection vial and tC18 eluent", "result": 97, "unit": "%"}, {"measurement": "intact parent", "setting": "[1]; starting with 0.5 Curies of fluorine-18", "result": 91, "unit": "%"}, {"measurement": "parent at T=0", "setting": "[1]; starting with 1 Curie of fluorine-18, radiolysis during HPLC purification and tC18 formulation", "result": 62, "unit": "%"}]}
{"substance": "βAG-TOCA", "values": [{"measurement": "time for which stable", "setting": "in the presence of BPDS", "result": "≤ 20", "unit": "min"}, {"measurement": "time for which stable", "setting": "in the presence of CuSO4", "result": "> 240", "unit": "min"}, {"measurement": "time for which stable", "setting": "in the presence of Na-ascorbate", "result": "≤ 20", "unit": "min"}]}
